The source of these data is the RepoRT retention time repository (doi:10.1016/j.foodchem.2018.09.045).

The structures appear in SMILES notation.

The nature of this data set: RP, Thermo Scientific Syncronis C18, 100 × 2.1 mm, 1.7 µm, 0.3 mL/min, estimated dead time 0.73 min; A: water + 0.1% acetic acid; B: acetonitrile + 0.1% acetic acid; gradient (min/%B) 0/5 1/5 16/95. The note with it: stereoisomer not certain.
Take `COc1cc(C=CC(=O)O)ccc1O`: the LC retention time is 7.04 min.
The result for `O=c1cc(-c2ccc(O)cc2)oc2cc(O)cc(O)c12` reads 9.52 min.
The result for `O=C(O)c1cc(O)ccc1O` reads 5.48 min.
Regarding `O=c1cc(-c2ccccc2)oc2cc(O)cc(O)c12`, the LC retention time is 11.6 min.
The result for `O=C1CC(c2ccc(O)c(O)c2)Oc2cc(O)cc(O)c21` (stereo unspecified) reads 8.59 min; that for `O=c1ccc2cc(OC3OC(CO)C(O)C(O)C3O)c(O)cc2o1` (stereo unspecified), 4.91 min; that for `O=C1CC(c2ccccc2)Oc2cc(O)cc(O)c21` (stereo unspecified), 11.7 min.
The result for `O=C1CC(c2ccc(O)cc2)Oc2cc(O)cc(O)c21` (stereo unspecified) reads 9.44 min; that for `O=c1c(-c2ccc(O)cc2)coc2cc(O)cc(O)c12`, 9.53 min.
Next, `CC1OC(Oc2c(-c3ccc(O)c(O)c3)oc3cc(O)cc(O)c3c2=O)C(O)C(O)C1O` (stereo unspecified): 7.17 min; `O=C(O)c1ccc(O)cc1`: 5.41 min.
Consider `CC1OC(OCC2OC(Oc3c(-c4ccc(O)c(O)c4)oc4cc(O)cc(O)c4c3=O)C(O)C(O)C2O)C(O)C(O)C1O` (stereo unspecified), for which the LC retention time is 6.44 min.
On to `COc1cc(C=CC(=O)O)cc(OC)c1O`, for which the LC retention time was 7.02 min.
Next, `O=c1c(O)c(-c2ccc(O)c(O)c2)oc2cc(O)cc(O)c12`: 8.24 min.
As for `O=C(O)C=Cc1ccc(O)cc1`, the LC retention time was 6.68 min.
The result for `O=C(O)c1ccc(O)c(O)c1` reads 4.44 min.
The result for `COc1cc(-c2oc3cc(O)cc(O)c3c(=O)c2O)ccc1O` reads 9.87 min; that for `COc1cc(C(=O)O)ccc1O`, 5.63 min.
Next, `O=C1c2c(O)cc(O)cc2OC(c2ccccc2)C1O` (stereo unspecified): 9.74 min; `COc1ccc(-c2oc3cc(O)cc(O)c3c(=O)c2O)cc1`: 11.8 min; `O=c1cc(-c2ccc(O)c(O)c2)oc2cc(O)cc(O)c12`: 8.69 min.
For `O=C(C=Cc1ccc(O)c(O)c1)OC1CC(O)(C(=O)O)CC(O)C1O` (stereo unspecified), the LC retention time was 5.26 min.
The result for `COc1cc(-c2cc(=O)c3c(O)cc(O)cc3o2)ccc1O` reads 9.94 min.
Consider `COc1cc(O)c2c(=O)cc(-c3ccc(O)cc3)oc2c1`, for which the LC retention time was 10.8 min.
Next, `O=C(O)Cc1ccc(O)cc1`: 5.62 min; `COc1cc(C=CC=O)ccc1O`: 7.9 min; `O=c1c(OC2OC(CO)C(O)C(O)C2O)c(-c2ccc(O)c(O)c2)oc2cc(O)cc(O)c12` (stereo unspecified): 6.71 min.
Regarding `O=c1c(O)c(-c2ccc(O)cc2)oc2cc(O)cc(O)c12`, the LC retention time was 9.7 min.
The result for `COc1ccc(-c2cc(=O)c3c(O)cc(O)cc3o2)cc1` reads 12.2 min; that for `CC1OC(OC2C(Oc3cc(O)c4c(c3)OC(c3ccc(O)cc3)CC4=O)OC(CO)C(O)C2O)C(O)C(O)C1O` (stereo unspecified), 7.03 min; that for `O=c1c(O)c(-c2ccccc2)oc2cc(O)cc(O)c12`, 11.8 min.
